Read-outs that look alike come from different tables or passages of the source.
Tested on: CsgA gene expression (csgBAC promoter-GFP reporter) in E. coli UTI89
Test: In vitro live cell fluorescent reporter assay of CsgA transcription (Reporter Assay)
Assay type: cell-based
Details: Escherichia coli
In short: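 Chromosomal single-copy csgBAC promoter–GFP reporter in E. coli UTI89, started at OD600 0.003 in YESCA broth with compound (0.14–100 μM, 1% DMSO), 20 h at 27 °C. GFP (ex 485/em 525 nm) background-subtracted and normalized to vehicle; IC50 and X[50] from curve fits. OD600 tracked growth effects.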

[1] = read-out: Reporter Assay Abs IC50 (activity range), median Abs IC50 in the CsgA reporter assay, class symbol
[2] = read-out: Reporter Assay Abs IC50 (μM), median Abs IC50 in the CsgA reporter assay, N/A = maximum expression reduction is <50% of control
[3] = read-out: Reporter Assay Abs IC50, activity range, class symbol

| SMILES | IC50 [1] [µM] | IC50 [2] [µM] | IC50 [3] [µM] |
| --- | --- | --- | --- |
| O=C(O)C1CN(C[C@H](O)[C@@H](O)[C@H](O)[C@H](O)CO)S(=O)(=O)c2c(-c3cccc(C(F)(F)F)c3)c(Cc3cccc4ccccc34)cc(=O)n21 (mixture of isomers) [Compound 066, 8-(naphthalen-1-ylmethyl)-6-oxo-2-((2S,3R,4R,5R)-2,3,4,5,6-pentahydroxyhexyl)-9-(3-(trifluoromethyl)phenyl)-3,4-dihydro-2H,6H-pyrido[1,2-e][1,2,5]thiadiazine-4-carboxylic acid 1,1-dioxide] | > 10 | 40.2 |  |
| O=C(O)[C@H]1CN(Cc2ccccc2)c2c(-c3cccc(C(F)(F)F)c3)c(Cc3cccc4ccccc34)c(Cl)c(=O)n21 (single isomer, unassigned) [Compound 004b] |  | 0.5 | < 1.3 |
| CNC(=O)C1CN(C)S(=O)(=O)c2c(-c3cccc(C(F)(F)F)c3)c(Cc3cccc4ccccc34)cc(=O)n21 (stereo not shown) [Compound 031, N,2-dimethyl-8-(naphthalen-1-ylmethyl)-6-oxo-9-(3-(trifluoromethyl)phenyl)-3,4-dihydro-2H,6H-pyrido[1,2-e][1,2,5]thiadiazine-4-carboxamide 1,1-dioxide] | 1.3 to 4.5 | 4.2 |  |
| CN(C)C(=O)c1c(Cc2cccc3ccccc23)c(-c2cccc(C(F)(F)F)c2)c2n(c1=O)C(C(=O)O)CN(C)S2(=O)=O (stereo not shown) [Compound 173, 7-(dimethylcarbamoyl)-2-methyl-8-(naphthalen-1-ylmethyl)-6-oxo-9-(3-(trifluoromethyl)phenyl)-3,4-dihydro-2H,6H-pyrido[1,2-e] [1,2,5] thiadiazine-4-carboxylic acid 1,1-dioxide] |  | 6.7 | 4.6 to 10 |
| O=C(O)C1CN(CCc2ccccc2)c2c(-c3cccc(C(F)(F)F)c3)c(Cc3cccc4ccccc34)c(Cl)c(=O)n21 (stereo not shown) [Compound 178, 6-chloro-7-(naphthalen-1-ylmethyl)-5-oxo-1-phenethyl-8-(3-(trifluoromethyl)phenyl)-1,2,3,5-tetrahydroimidazo[1,2-a]pyridine-3-carboxylic acid] |  | 0.8 | < 1.3 |
| O=C(O)C1CSc2c(-c3cccc(C(F)(F)F)c3)c(Cc3cccc4ccccc34)cc(=S)n21 (stereo not shown) [Compound 054, 7-(naphthalen-1-ylmethyl)-5-thioxo-8-(3-(trifluoromethyl)phenyl)-2,3-dihydro-5H-thiazolo[3,2-a]pyridine-3-carboxylic acid] | 4.6 to 10 | 6.3 |  |
| CCCN1CC(C(=O)O)n2c(c(-c3cccc(C(F)(F)F)c3)c(Cc3cccc4ccccc34)c(Cl)c2=O)S1(=O)=O (stereo not shown) [Compound 142, 7-chloro-8-(naphthalen-1-ylmethyl)-6-oxo-2-propyl-9-(3-(trifluoromethyl)phenyl)-3,4-dihydro-2H,6H-pyrido[1,2-e][1,2,5]thiadiazine-4-carboxylic acid 1,1-dioxide] |  | 2.3 | 1.3 to 4.5 |
| CCCN1CC(C(=O)O)n2c1c(-c1cccc(C(F)(F)F)c1)c(Cc1cccc3ccccc13)c(Cl)c2=O (stereo not shown) [Compound 162, 6-chloro-7-(naphthalen-1-ylmethyl)-5-oxo-1-propyl-8-(3-(trifluoromethyl)phenyl)-1,2,3,5-tetrahydroimidazo[1,2-a]pyridine-3-carboxylic acid] |  | 1.1 | < 1.3 |
| O=C(O)C1CN(C[C@H](O)CO)S(=O)(=O)c2c(-c3cccc(C(F)(F)F)c3)c(Cc3cccc4ccccc34)cc(=O)n21 (stereo partly drawn) [Compound 065a, 2-((S)-2,3-dihydroxypropyl)-8-(naphthalen-1-ylmethyl)-6-oxo-9-(3-(trifluoromethyl)phenyl)-3,4-dihydro-2H,6H-pyrido[1,2-e][1,2,5]thiadiazine-4-carboxylic acid 1,1-dioxide] | > 10 | 24.5 |  |
| CC(C)(C)c1ccc(Cc2c(-c3cccc(C(F)(F)F)c3)c3n(c(=O)c2Cl)C(C(=O)O)CN3Cc2ccccc2)cc1 (stereo not shown) [Compound 216, 1-benzyl-7-(4-(tert-butyl)benzyl)-6-chloro-5-oxo-8-(3-(trifluoromethyl)phenyl)-1,2,3,5-tetrahydroimidazo[1,2-a]pyridine-3-carboxylic acid] |  | 0.7 | < 1.3 |
| Cn1c(=O)c2c(nc(CCCCCCCN3CC(C(=O)O)n4c(c(-c5cccc(C(F)(F)F)c5)c(Cc5cccc6ccccc56)cc4=O)S3(=O)=O)n2C)n(C)c1=O (stereo not shown) [Compound 047, 8-(naphthalen-1-ylmethyl)-6-oxo-9-(3-(trifluoromethyl)phenyl)-2-(7-(1,3,7-trimethyl-2,6-dioxo-2,3,6,7-tetrahydro-1H-purin-8-yl)heptyl)-3,4-dihydro-2H,6H-pyrido[1,2-e][1,2,5]thiadiazine-4-carboxylic acid 1,1-dioxide] | < 1.3 | 0.9 |  |
| O=C(O)C1CN(Cc2ccccc2CO)c2c(-c3cccc(C(F)(F)F)c3)c(Cc3cccc4ccccc34)c(Cl)c(=O)n21 (stereo not shown) [Compound 181, 6-chloro-1-(2-(hydroxymethyl)benzyl)-7-(naphthalen-1-ylmethyl)-5-oxo-8-(3-(trifluoromethyl)phenyl)-1,2,3,5-tetrahydroimidazo[1,2-a]pyridine-3-carboxylic acid] |  | 2 | 1.3 to 4.5 |
| O=C(O)C1CN(CCCCCCCN2CC(C(=O)O)n3c2c(-c2cccc(C(F)(F)F)c2)c(Cc2cccc4ccccc24)c(Cl)c3=O)c2c(-c3cccc(C(F)(F)F)c3)c(Cc3cccc4ccccc34)c(Cl)c(=O)n21 (stereo not shown) [Compound 188, 1,1′-(heptane-1,7-diyl)bis(6-chloro-7-(naphthalen-1-ylmethyl)-5-oxo-8-(3-(trifluoromethyl)phenyl)-1,2,3,5-tetrahydroimidazo[1,2-a]pyridine-3-carboxylic acid)] |  | 0.8 | < 1.3 |
| N#Cc1cccc(CN2CC(C(=O)O)n3c2c(-c2cccc(C(F)(F)F)c2)c(Cc2cccc4ccccc24)c(Cl)c3=O)c1 (stereo not shown) [Compound 168, 6-chloro-1-(3-cyanobenzyl)-7-(naphthalen-1-ylmethyl)-5-oxo-8-(3-(trifluoromethyl)phenyl)-1,2,3,5-tetrahydroimidazo[1,2-a]pyridine-3-carboxylic acid] |  | 1.3 | 1.3 to 4.5 |
| CCCNC(=O)c1c(Cc2cccc3ccccc23)c(-c2cccc(C(F)(F)F)c2)c2n(c1=O)C(C(=O)O)CN(C)S2(=O)=O (stereo not shown) [Compound 154, 2-methyl-8-(naphthalen-1-ylmethyl)-6-oxo-7-(propylcarbamoyl)-9-(3-(trifluoromethyl)phenyl)-3,4-dihydro-2H,6H-pyrido[1,2-e][1,2,5]thiadiazine-4-carboxylic acid 1,1-dioxide] |  | 6.1 | 4.6 to 10 |
| O=C(O)C1CN(Cc2ccncc2)c2c(-c3cccc(C(F)(F)F)c3)c(Cc3cccc4ccccc34)c(Cl)c(=O)n21 (stereo not shown) [Compound 174, 6-chloro-7-(naphthalen-1-ylmethyl)-5-oxo-1-(pyridin-4-ylmethyl)-8-(3-(trifluoromethyl)phenyl)-1,2,3,5-tetrahydroimidazo[1,2-a]pyridine-3-carboxylic acid] |  | 4.4 | 1.3 to 4.5 |
| O=C(O)C1CN(CC2CCOCC2)c2c(-c3cccc(C(F)(F)F)c3)c(Cc3cccc4ccccc34)c(Cl)c(=O)n21 (stereo not shown) [Compound 182, 6-chloro-7-(naphthalen-1-ylmethyl)-5-oxo-1-((tetrahydro-2H-pyran-4-yl)methyl)-8-(3-(trifluoromethyl)phenyl)-1,2,3,5-tetrahydroimidazo[1,2-a]pyridine-3-carboxylic acid] |  | 2.5 | 1.3 to 4.5 |
